{"source": "paper PMC10747602", "about": "“Dose Response, Dosimetric, and Metabolic Evaluations of Replacement PFAS Perfluoro-(2,5,8-trimethyl-3,6,9-trioxadodecanoic) Acid (HFPO-TeA)” (Toxics, 2023)", "key": {"Sprague Dawley rats": {"tested_on": "Sprague Dawley rats", "assay": "Mortality in five-day oral gavage exposure; LD50 calculation (BMDS 3.3.2)", "details": "for LD50 estimate (lower and upper 95% bounds): oral gavage, BMDS 3.3.2 multistage 3 model", "protocol": "Male and female rats (n = 4/sex, dose, and time point) were dosed by gavage (5 mL/kg bodyweight) once daily for five days with water (vehicle control) or HFPO-TeA at eight half-log dose levels ranging from 0.3 to 335.2 mg/kg/day (i.e., 0.3, 0.9, 2.3, 6.3, 17, 45.9, 124, and 335.2). The results reported here are part of a larger study, for which the main purpose was to use benchmark dose–response modeling of transcriptomic data to identify a gene set basis for the point of departure (POD).\nClinical observations were performed prior to first administration and at termination. Moribundity and mortality were assessed twice daily on weekdays and once daily on weekends. Animals found moribund were euthanized by carbon dioxide inhalation and death was confirmed by cervical dislocation.\nThe mortality incident data were analyzed using BMDS 3.3.2, with the dichotomous model selected as the model type. The Benchmark Response was set at 0.5 extra risk. LD50 estimates were based on the model with the lowest Akaike information criterion (AIC)."}, "Liver HFPO-TeA dosimetry": {"assay": "Liver HFPO-TeA dosimetry", "format": "in vivo, Sprague Dawley rats", "details": "for 5D Liver Conc.: 5 days of exposure, mean ± SD n=4; for concentration at 5 days: Sprague Dawley, rat, liver, oral, wet weight, individual rats, read-out: Liver Conc.", "protocol": "Whole blood was collected from the retro-orbital plexus under isoflurane anesthesia 2 h following the first dose and by cardiac puncture 24 h after the last dosage. Blood was stored in anticoagulant potassium ethylenediaminetetraacetic acid (K3EDTA)-coated vacutainers, and then processed to isolate plasma via centrifugation. Animals were euthanized via carbon dioxide asphyxiation and subsequent exsanguination. Liver was collected, weighed, cubed, and divided into three aliquots. One aliquot of tissue was flash-frozen in liquid nitrogen and stored at −80 °C for analytical chemistry analyses. The remaining two aliquots were placed in RNALater and frozen for use in the companion transcriptomic study. Liver and plasma samples were received at the U.S. EPA Center for Computational Toxicology and Exposure, Advanced Analytical Chemistry Methods Branch in Research Triangle Park, North Carolina, USA, and stored at −80 °C prior to extraction.\nInformation on the chemicals and materials used in the liver plasma HFPO-TeA dosimetry work can be found in Supplementary Text S6 and Table S3. Liver sample preparation was modified from Conley et al.’s work and detailed in Supplementary Text S6 [49]. Briefly, samples were spiked with the internal standard PFHxDA then homogenized in 200 µL of ACN containing 0.1% formic acid. The sample was centrifuged, and the supernatant was transferred. This process was repeated twice more, then stored at −20 °C prior to analysis.\nLiver samples were analyzed using the same analytical assessment procedure as the plasma dosimetry samples. Matrix blanks were analyzed with each sample set. HFPO-TeA was not detected in the blanks above the limit of quantitation (LOQ) of 1.58 µM. Statistical analysis is described in Supplementary Text S3, normalization calculations are described in Supplementary Text S5 [47], and the liver-to-plasma partitioning calculation is outlined in Supplementary Text S7 [32, 50, 51].\nAll in vivo results values are reported as mean ± one standard deviation (SD). Statistical evaluation of in vivo data was conducted using a two-way analysis of variance (ANOVA) and Dunnett’s Test, both at α = 0.05 significance level, on GraphPad Prism v9.5.1.\nSupport ing Text S4: Plasma Dosimetry Chemicals, Materials, and Analysis Sprague Dawley rodent plasma (pooled, mixed sex) collected with ethylenediaminetetraacetic acid (EDTA) and sterile filtered (0.2 µm) was obtained from BioIVT (Westbury, NY, USA) and stored at -80 °C until use as the control matrix for generating calibration curves and as the matrix blank during plasma sample analysis. The HFPO-TeA (98.97% pure) used for calibration curve preparation was obtained from Oakwood Products Inc. (West Columbia, South Carolina, USA). Unlabeled perfluorohexadecanoic acid (CASRN 67905-19-5 | DTXSID1070800 | PFHxDA; ≥ 98% pure) was obtained from Cambridge Isotope Laboratories (Tewksbury, MA, USA) to serve as the internal standard since a labeled HFPO-TeA standard was not commercially available. […]\nSamples were quantitated against matrix-matched calibration curves containing a minimum of 5 points spanning the range 20 – 80,280 ng/mL plasma. Calibrants were prepared by spiking commercial rat plasma (BioIVT) with HFPO-TeA and PFHxDA and then extracted in the same manner as study samples.\nSupport ing Text S5: Normalization of Dosimetry Data Calculations\nPercent dose of HFPO-TeA in plasma was calculated using the observed plasma concentrations and the average plasma volume for Sprague Dawley rats. The density of plasma was then used to convert from mL plasma to grams plasma for ease of comparison to the liver percent dose data. Average percent dose of HFPO-TeA in liver was calculated using the observed liver concentrations and liver weights. These calculations allow for a comparison of the potential saturation of available proteins in […]\nSupport ing Text S6: Liver Dosimetry Chemicals, Materials, and Analysis […]"}}, "note": "Where two headings read alike, the source gives them in different places."}
{"smiles": "O=C(O)C(F)(OC(F)(F)C(F)(OC(F)(F)C(F)(OC(F)(F)C(F)(F)C(F)(F)F)C(F)(F)F)C(F)(F)F)C(F)(F)F", "note": "(centres unmarked) [HFPO-TeA, perfluoro-(2,5,8-trimethyl-3,6,9-trioxadodecanoic) acid]", "values": [{"measurement": "LD50 estimate (lower and upper 95% bounds)", "setting": "Sprague Dawley rats; females", "value": "28.23 (18.69 and 41.57) mg/kg/day"}, {"measurement": "premature death", "setting": "Sprague Dawley rats; male and female rats, 45.9, 124, and 335.2 mg/kg/day dose groups", "value": "Premature death occurred"}, {"measurement": "doses at which mortality was observed", "setting": "Sprague Dawley rats; male and female rats, oral gavage five days", "value": "> 17", "unit": "mg/kg/day"}, {"measurement": "LD50 estimate (lower and upper 95% bounds)", "setting": "Sprague Dawley rats; males", "value": "37.77 (26.09 and 59.96) mg/kg/day"}, {"measurement": "5D Liver Conc.", "setting": "Liver HFPO-TeA dosimetry; 0.9 mg/kg/day, F", "value": "14.0 ± 4.3", "unit": "µM"}, {"measurement": "5D Liver Conc.", "setting": "Liver HFPO-TeA dosimetry; 2.3 mg/kg/day, F", "value": "16.5 ± 12.6", "unit": "µM"}, {"measurement": "5D Liver Conc.", "setting": "Liver HFPO-TeA dosimetry; 2.3 mg/kg/day, M", "value": "10.3 ± 7.5", "unit": "µM"}, {"measurement": "5D Liver Conc.", "setting": "Liver HFPO-TeA dosimetry; 6.3 mg/kg/day, F", "value": "86.8 ± 31.7", "unit": "µM"}, {"measurement": "5D Liver Conc.", "setting": "Liver HFPO-TeA dosimetry; 6.3 mg/kg/day, M", "value": "82.7 ± 10.5", "unit": "µM"}, {"measurement": "5D Liver Conc.", "setting": "Liver HFPO-TeA dosimetry; 17 mg/kg/day, F", "value": "250 ± 39", "unit": "µM"}, {"measurement": "5D Liver Conc.", "setting": "Liver HFPO-TeA dosimetry; 17 mg/kg/day, M", "value": "210 ± 85", "unit": "µM"}, {"measurement": "concentration at 5 days", "setting": "Liver HFPO-TeA dosimetry; female, 0.9 mg/kg/day, F", "value": 9240, "unit": "ng/g"}, {"measurement": "concentration at 5 days", "setting": "Liver HFPO-TeA dosimetry; female, 17 mg/kg/day, F", "value": 174000, "unit": "ng/g"}, {"measurement": "concentration at 5 days", "setting": "Liver HFPO-TeA dosimetry; male, 6.3 mg/kg/day, M", "value": 61600, "unit": "ng/g"}]}
